Laboratory results taken from patent publication US20220349887A1, “Compositions and Methods for Multiplex Detection of Microorganisms Using Peptide-Tagged Recombinant Infectious Agents” (priority 2021, published 2022).

Key:
Test in all cases: Antibiotic susceptibility testing in human blood: cefoxitin enrichment, then MP115.NL/SAPJV1.NL phage infection, luminescence
Assay type in all cases: cell-based
[1] = system: Methicillin-resistant Staphylococcus aureus (MRSA) ATCC BAA-1720; conditions: 41 CFU/Well
Experimental: (§1) Methicillin-resistant Staphylococcus aureus (MRSA) strains (ATCC BAA-1720, CDC AR0480) and the methicillin-susceptible Staphylococcus aureus (MSSA) strain (ATCC 12600) were grown to log phase (OD600 ranged from 0.16 to 0.4) in tryptic soy broth (TSB). Cultures were diluted in TSB to obtain the desired burden, which was confirmed by plating on TSB agar for colony forming units (CFU). 50 μL of each dilution was added to test strips. When indicated, some strips contained bound anti-NANOLUC® antibody on medium-binding plates for capture. 85 μL, of either TSB or human blood diluted with TSB and sodium polyanethole sulfonate (SPS) was added. Human blood was collected from a single donor using sodium heparin as an anti-coagulant. Each well then received 15 μL of either TSB or 22 μg/mL cefoxitin (FOX) in TSB. The final concentration of each component in the well (150 μL volume) was 25% human blood, 0.0375% SPS, and 2.2 μg/mL FOX. Test strips were then sealed with cover film and incubated at 37° C. for two hours. After this selective enrichment, 20 μL of phage working stock was added to wells containing the TSB matrix. Phage working stock contained 8×10^7 plaque forming units per mL (pfu/mL) of MP115.NL and 6.9×10^8 pfu/mL of SAPJV1.NL. For wells containing blood matrix, 0.5 mg of recombinant Staphylococcal protein A (pro-356, Prospec, Ness-Ziona, Israel) per well was included within the 20 μL of phage working stock. Assay strips were once again sealed with cover film and incubated at 37° C. for three hours. Following infection, anti-NanoLuc capture and controls strips were washed three times with 300 μL PBS-T (10 mM sodium phosphate, 150 mM NaCl, 0.05% Tween 20, pH 7.4). Washes were conducted using an automatic plate washer (AccuWash, Thermo Fisher Scientific, Waltham, Mass., USA). 100 μL of NanoGlo buffer (Promega, Madison, Wisc., USA) containing 1 μL of NanoGlo substrate (Promega, Madison, Wisc., USA) was added to each well. “No wash+No Capture” strips were not washed and instead received 65 μL of a master mix containing 50 μL NanoGlo Buffer, 15 μL TSB, and 1 μL NanoGlo substrate. Following a 3 minute wait period, the signal output of each sample as relative light units (RLU) was determined using a GloMax Navigator (Promega, Madison, Wisc., USA). Signal over background (SB) was calculated by dividing the RLU from each sample from the RLU observed in the media control for that test matrix (Table 2).

[2] = system: Methicillin-resistant Staphylococcus aureus (MRSA) CDC AR0480; conditions: 110 CFU/Well
Experimental: as §1

[3] = system: methicillin-susceptible Staphylococcus aureus (MSSA) ATCC 12600; conditions: 130 CFU/Well
Experimental: as §1

[4] = 5% BSA Blocked Strips, Blood + FOX 2.2 μg/mL
[5] = 5% BSA Blocked Strips, TSB + FOX 2.2 μg/mL
[6] = Anti-NanoLuc Capture Strips, Blood + FOX 2.2 μg/mL
[7] = Anti-NanoLuc Capture Strips, TSB + FOX 2.2 μg/mL
[8] = No Capture + No Wash, Blood + FOX 2.2 μg/mL
[9] = No Capture + No Wash, TSB + FOX 2.2 μg/mL

CO[C@@]1(NC(=O)Cc2cccs2)C(=O)N2C(C(=O)O)=C(COC(N)=O)CS[C@@H]21 [FOX, cefoxitin]
RLU [1, 4]: 12 RLU | S/B [1, 4]: 2 | RLU [1, 5]: 20 RLU | S/B [1, 5]: 3 | RLU [1, 6]: 63960 RLU | S/B [1, 6]: 3998 | RLU [1, 7]: 79180 RLU | S/B [1, 7]: 1028 | RLU [1, 8]: 9035 RLU | S/B [1, 8]: 177 | RLU [1, 9]: 342000 RLU | S/B [1, 9]: 447 | RLU [2, 4]: 3 RLU | S/B [2, 4]: 0 | RLU [2, 5]: 53 RLU | S/B [2, 5]: 7 | RLU [2, 6]: 6927 RLU | S/B [2, 6]: 433 | RLU [2, 7]: 96650 RLU | S/B [2, 7]: 1255 | RLU [2, 8]: 432 RLU | S/B [2, 8]: 8 | RLU [2, 9]: 127000 RLU | S/B [2, 9]: 166 | RLU [3, 4]: 10 RLU | S/B [3, 4]: 1 | RLU [3, 5]: 6 RLU | S/B [3, 5]: 1 | RLU [3, 6]: 18 RLU | S/B [3, 6]: 1 | RLU [3, 7]: 80 RLU | S/B [3, 7]: 1 | RLU [3, 8]: 103 RLU | S/B [3, 8]: 2 | RLU [3, 9]: 988 RLU | S/B [3, 9]: 1
